In patent publication US6680323B2, “Dihydropyrimidines and uses thereof” (Synaptic Pharmaceutical Corporation, priority 1998, dated 2004):
Structures can show the parent of a compound that is named as a salt.

Key:
human α2b receptor = molecular target: T1, human α2b receptor (Homo sapiens, UniProt P18089); assay: Competition binding ([3H]rauwolscine) at cloned human α2b receptor; conditions: transfected LM(tk−) cells, [3H]rauwolscine 0.5 nM; read-out: Binding affinity hα2b
T1 construct: expressed in transfected cells
T1 sequence (P18089 1-450): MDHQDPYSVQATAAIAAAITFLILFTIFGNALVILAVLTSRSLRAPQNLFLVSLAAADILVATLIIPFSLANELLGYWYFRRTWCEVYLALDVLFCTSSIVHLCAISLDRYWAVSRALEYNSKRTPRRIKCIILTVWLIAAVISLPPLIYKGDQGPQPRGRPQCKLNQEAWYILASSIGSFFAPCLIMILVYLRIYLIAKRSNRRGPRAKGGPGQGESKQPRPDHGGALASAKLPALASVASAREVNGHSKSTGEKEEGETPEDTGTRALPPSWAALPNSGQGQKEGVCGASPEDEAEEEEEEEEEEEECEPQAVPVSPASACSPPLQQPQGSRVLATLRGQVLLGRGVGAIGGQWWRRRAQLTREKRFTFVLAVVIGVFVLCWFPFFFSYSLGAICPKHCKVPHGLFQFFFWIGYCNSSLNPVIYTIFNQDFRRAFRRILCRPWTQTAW
Source text: α2 Human Adrenergic Receptors
To determine the potency of α1 antagonists at the α2 receptors, LM(tk−) cell lines stably transfected with the genes encoding the α2a, α2b, and α2c receptors were used. The cell line expressing the α2a receptor is designated L-α2A, and was deposited on Nov. 6, 1992 under ATCC Accession No. CRL 11180. The cell line expressing the α2b receptor is designated L-NGC-α2B, and was deposited on Oct. 25, 1989 under ATCC Accession No. CRL10275. The cell line expressing the α2c receptor is designated L-α2C, and was deposited on Nov. 6, 1992 under ATCC Accession No. CRL-11181. All the cell lines were deposited with the American Type Culture Collection, 12301 Parklawn Drive, Rockville, Md. 20852, U.S.A. under the provisions of the Budapest Treaty for the International Recognition of the Deposit of Microorganisms for the Purposes of Patent Procedure. Cell lysates were prepared as described above (see Radioligand Binding Assays), and suspended in 25 mM glycylglycine buffer (pH 7.6 at room temperature). Equilibrium competition binding assay were performed using [3H]rauwolscine (0.5 nM), and nonspecific binding was determined by incubation with 10 μM phentolamine. The bound radioligand was separated by filtration through GF/B filters using a cell harvester.

human α1d receptor = molecular target: T2, human α1d receptor (Homo sapiens, UniProt P25100); assay: Radioligand binding ([3H]prazosin) at cloned human α1d receptor; conditions: second column headed hα1a (c3); membranes of transfected LM(tk−) cells, [3H]prazosin 0.5 nM; read-out: Binding affinity hα1a
T2 construct: expressed in transfected cells
T2 sequence (P25100 1-572): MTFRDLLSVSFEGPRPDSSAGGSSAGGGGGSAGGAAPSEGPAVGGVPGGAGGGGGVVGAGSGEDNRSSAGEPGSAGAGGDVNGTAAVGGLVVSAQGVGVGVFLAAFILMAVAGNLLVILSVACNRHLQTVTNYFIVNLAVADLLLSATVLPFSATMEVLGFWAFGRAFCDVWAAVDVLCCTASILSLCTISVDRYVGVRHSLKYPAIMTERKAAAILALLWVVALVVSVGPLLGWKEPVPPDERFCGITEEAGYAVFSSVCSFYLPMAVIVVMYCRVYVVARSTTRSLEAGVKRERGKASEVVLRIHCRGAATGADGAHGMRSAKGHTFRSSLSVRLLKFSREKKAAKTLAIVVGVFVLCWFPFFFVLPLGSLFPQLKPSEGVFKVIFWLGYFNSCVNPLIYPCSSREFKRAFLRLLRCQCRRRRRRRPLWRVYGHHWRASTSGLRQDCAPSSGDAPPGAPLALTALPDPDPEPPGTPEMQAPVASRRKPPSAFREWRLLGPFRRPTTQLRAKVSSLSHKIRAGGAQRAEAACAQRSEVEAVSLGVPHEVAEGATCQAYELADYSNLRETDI
Experimental: The activity of compounds at the different human receptors was determined in vitro using cultured cell lines that selectively express the receptor of interest. These cell lines were prepared by transfecting the cloned cDNA or cloned genomic DNA or constructs containing both genomic DNA and cDNA encoding the human α-adrenergic receptors as follows:
α1d Human Adrenergic Receptor
The entire coding region of α1d (1719 bp), including 150 base pairs of 5′ untranslated sequence (5′ UT) and 300 bp of 3′ untranslated sequence (3′ UT), was cloned into the BamHI and ClaI sites of the polylinker-modified eukaryotic expression vector pCEXV-3, called EXJ.HR. The construct involved the ligation of partial overlapping human lymphocyte genomic and hippocampal cDNA clones: 5′ sequence were contained on a 1.2 kb SmaI-XhoI genomic fragment (the vector-derived BamHI site was used for subcloning instead of the internal ninsert-derived SmaI site) and 3′ sequences were contained on an 1.3 kb XhoI-ClaI cDNA fragment (the ClaI site was from the vector polylinker). Stable cell lines were obtained by cotransfection with the plasmid α1A/EXJ (expression vector containing the α1a receptor gene (old nomenclature)) and the plasmid pGCcos3neo (plasmid containing the aminoglycoside transferase gene) into LM(tk−) cells using calcium phosphate technique. The cells were grown, in a controlled environment (37° C., 5% CO2), as monolayers in Dulbecco's modified Eagle's Medium (GIBCO, Grand Island, N.Y.) containing 25 mM glucose and supplemented with 10% bovine calf serum, 100 units/ml penicillin g, and 100 μg/ml streptomycin sulfate. Stable clones were then selected for resistance to the antibiotic G-418 (1 mg/ml), and membranes were harvested and assayed for their ability to bind [^3H]prazosin as described below (see “Radioligand Binding assays”).
The cell line expressing the human α1d receptor used herein was designated L-α1A (old nomenclature) and was deposited with the American Type Culture Collection, 12301 Parklawn Drive, Rockville, Md. 20852, U.S.A. under the provisions of the Budapest Treaty for the International Recognition of the Deposit of Microorganisms for the Purposes of Patent Procedure. The cell line expressing the human α1d receptor, was accorded ATCC Accession No. CRL 11138, and was deposited on Sep. 25, 1992.
Radioligand Binding Assays for α1 Receptors
Transfected cells from culture flasks were scraped into 5 ml of 5 mM Tris-HCl, 5 mM EDTA, pH 7.5, and lysed by sonication. The cell lysates were centrifuged at 1000 rpm for 5 min at 4° C., and the supernatant was centrifuged at 30,000×g for 20 min at 4° C. The pellet was suspended in 50 mM Tris-HCl, 1 mM MgCl2, and 0.1% ascorbic acid at pH 7.5. Binding of the α1 antagonist [^3H]prazosin (0.5 nM, specific activity 76.2 Ci/mmol) to membrane preparations of LM(tk−) cells was done in a final volume of 0.25 ml and incubated at 37° C. for 20 min. Nonspecific binding was determined in the presence of 10 μM phentolamine. The reaction was stopped by filtration through GF/B filters using a cell harvester. Inhibition experiments, routinely consisting of 7 concentrations of the tested compounds, were analyzed using a non-linear regression curve-fitting computer program to obtain Ki values.

Compound | Ki (human α2b receptor) [µM] | Ki (human α1d receptor) [µM]
COCC1=C(C(=O)OC)[C@H](c2ccc(F)c(F)c2)N(C(=O)NCCCO)C(=O)N1 [Compound 1, (+)-1,2,3,6-Tetrahydro-1-(3-hydroxypropyl)carboxamido-5-methoxycarbonyl-4-methoxymethyl-6-(3,4-difluorophenyl)-2-oxo-pyrimidine] | 26 | > 50
O=C(O)CCNC(=O)N1C(=O)NC2=C(C(=O)OC2)[C@@H]1c1ccc(F)c(F)c1 [Compound 9] | > 50 | > 5
COCC1=C(C(=O)OC)[C@H](c2ccc(F)c(F)c2)N(C(=O)NCCC[n+]2ccc(-c3ccccn3)cc2)C(=O)N1 [Compound 3, 4-(2-Pyridyl)-1-{3-[5-carboxymethyl-4-methoxymethyl-2-oxo-6(S)-(3,4-difluorphenyl)-1,2,3,6-tetrahydropyrimidin-1-yl]carboxyaminopropyl}pyridinium chloride] | 9.66 | > 5

The next compounds have a lower Ki (human α2b receptor) than those just listed; values first:

Ki (human α2b receptor) [µM] | Ki (human α1d receptor) [µM] | Compound
8.7 | 3.7 | COCC1=C(C(=O)OC)[C@H](c2ccc(F)c(F)c2)N(C(=O)NCCCN2CCC(c3cccc[n+]3[O-])CC2)C(=O)N1 [Compound 2, (+)-1,2,3,6-Tetrahydro-1-{N-[4-(2-pyridyl)piperidin-1-yl]propyl}carboxamido-5-methoxycarbonyl-4-methoxymethyl-6-(3,4-difluorophenyl)-2-oxopyrimidine-pyridine-N-oxide hydrochloride]
0.97 | 1.97 | O=C1OCC2=C1C(c1ccc(F)c(F)c1)N(C(=O)NCCCN1CCC(c3ccccn3)CC1)C(=O)N2 (single isomer, unassigned; (+)) [Compound 8, (+)-1-3-{[4-(3,4-Difluorophenyl)-2,5-dioxo-1,2,5,7-tetrahydro-4H-furo[3,4-d]-pyrimidine-3-carbonyl]amino}-propyl-4-(2-pyridyl)-piperidine]
1.2 | 1.2 | COC(=O)C1=C(CO)NC(=O)N(C(=O)NCCCN2CCC(c3ccccn3)CC2)[C@H]1c1ccc(F)c(F)c1 [Compound 7, (+)-1,2,3,6-Tetrahydro-1-{N-[4-(2-pyridyl)piperidin-1-yl]propyl}carboxamido-5-methoxycarbonyl-4-hydroxymethyl-6-(3,4-difluorophenyl)-2-oxopyrimidine]
